# Legend:
# Type in all cases: cell-based, human
# 786-0 = test: NCI in vitro cancer screen, Renal Cancer; conditions: 786-0
# MOLT-4 = test: NCI in vitro cancer screen, Leukemia; conditions: MOLT-4
# SN12C = test: NCI in vitro cancer screen, Renal Cancer
# LOX IMVI = test: NCI in vitro cancer screen, Melanoma
# A498 = test: NCI in vitro cancer screen, Renal Cancer; conditions: A498
# COLO 205 = test: NCI in vitro cancer screen, Colon Cancer; conditions: COLO 205
# SK-MEL-2 = test: NCI in vitro cancer screen, Melanoma; conditions: SK-MEL-2
# NCI-H322M = test: NCI in vitro cancer screen, Non-Small Cell Lung Cancer
# RPMI-8226 = test: NCI in vitro cancer screen, Leukemia; conditions: RPMI-8226
# SR = test: NCI in vitro cancer screen, Leukemia
# T-47D = test: NCI in vitro cancer screen, Breast Cancer
# HCC-2998 = test: NCI in vitro cancer screen, Colon Cancer; conditions: HCC-2998
# M14 = test: NCI in vitro cancer screen, Melanoma; conditions: M14
# NCI-H522 = test: NCI in vitro cancer screen, Non-Small Cell Lung Cancer; conditions: NCI-H522
# MDA-MB-435 = test: NCI in vitro cancer screen, Melanoma; conditions: MDA-MB-435
# RXF-393 = test: NCI in vitro cancer screen, Renal Cancer; conditions: RXF-393
# UO-31 = test: NCI in vitro cancer screen, Renal Cancer; conditions: UO-31
# A549/ATCC = test: NCI in vitro cancer screen, Non-Small Cell Lung Cancer
# ACHN = test: NCI in vitro cancer screen, Renal Cancer
# SF-295 = test: NCI in vitro cancer screen, CNS Cancer; conditions: SF-295
# PC-3 = test: NCI in vitro cancer screen, Prostate Cancer; conditions: PC-3
# K-562 = test: NCI in vitro cancer screen, Leukemia; conditions: K-562
# ADR-RES (NCI/ADR-RES) = test: NCI in vitro cancer screen, Ovarian Cancer
# UACC-62 = test: NCI in vitro cancer screen, Melanoma; conditions: UACC-62
# SNB-75 = test: NCI in vitro cancer screen, CNS Cancer; conditions: SNB-75
# MALME-3M = test: NCI in vitro cancer screen, Melanoma
# SK-OV-3 = test: NCI in vitro cancer screen, Ovarian Cancer; conditions: SK-OV-3
# NCI-H460 = test: NCI in vitro cancer screen, Non-Small Cell Lung Cancer; conditions: NCI-H460
# [1] = system: MDA-MB-231 (MDA-MB-231/ATCC); test: NCI in vitro cancer screen, Breast Cancer; conditions: MDA-MB-231
# HCT-15 = test: NCI in vitro cancer screen, Colon Cancer; conditions: HCT-15
# HL-60 (TB) = test: NCI in vitro cancer screen, Leukemia; conditions: HL-60 (TB)
# [2] = Homo sapiens, read-out: LC50 (the source's name)
compound,measurement,setting,value
"COc1cc(/C=C/c2cc(O)c(CC=C(C)C)c(O)c2)ccc1O [USYDS13, (E)-4-(3-methyl-2-buten-1-yl)-3,4′,5-trihydroxy-3′-methoxystilbene]",TGI,786-0,24.5 µM
same,GI50,786-0; Homo sapiens,5.24 µM
same,LC50 (50% net cell kill),786-0; Homo sapiens,> 100 µM
same,GI50,MOLT-4; Homo sapiens,2.95 µM
same,CC50,MOLT-4; [2],> 100 µM
same,TGI,MOLT-4,13.7 µM
same,TGI,SN12C,>100 µM
same,GI50,SN12C; Homo sapiens,7.16 µM
same,CC50,SN12C; [2],> 100 µM
same,TGI,LOX IMVI,20.2 µM
same,GI50,LOX IMVI; Homo sapiens,4.48 µM
same,CC50,LOX IMVI; [2],80 µM
same,TGI,A498,21.0 µM
same,GI50,A498; Homo sapiens,3.88 µM
same,CC50,A498; [2],63.5 µM
same,TGI,COLO 205,28.9 µM
same,GI50,COLO 205; Homo sapiens,15.6 µM
same,CC50,COLO 205; [2],53.8 µM
same,GI50,SK-MEL-2; Homo sapiens,3.09 µM
same,LC50,SK-MEL-2; Homo sapiens,40.2 µM
same,TGI,SK-MEL-2,9.37 µM
same,TGI,NCI-H322M,28.5 µM
same,GI50,NCI-H322M; Homo sapiens,5.9 µM
same,LC50 (50% lethal concentration),NCI-H322M; Homo sapiens,> 100 µM
same,GI50,RPMI-8226; Homo sapiens,9.05 µM
same,CC50,RPMI-8226; [2],> 100 µM
same,TGI,RPMI-8226,51.6 µM
same,TGI,SR,>100 µM
same,GI50,SR; Homo sapiens,2.8 µM
same,CC50,SR; [2],> 100 µM
same,TGI,T-47D,14.7 µM
same,GI50,"T-47D; Homo sapiens, T47D",2.92 µM
same,CC50,"T-47D; Homo sapiens, T47D, read-out: LC50 (the source's name)",70.5 µM
same,TGI,HCC-2998,30.6 µM
same,GI50,HCC-2998; Homo sapiens,11 µM
same,CC50,HCC-2998; [2],85.3 µM
same,GI50,M14; Homo sapiens,4.92 µM
same,CC50,M14; [2],51.6 µM
same,TGI,M14,18.5 µM
same,GI50,NCI-H522; Homo sapiens,2.13 µM
same,CC50,NCI-H522; [2],25.6 µM
same,TGI,NCI-H522,59.8 µM
same,GI50,MDA-MB-435; Homo sapiens,3.08 µM
same,CC50,MDA-MB-435; [2],> 100 µM
same,TGI,MDA-MB-435,15.9 µM
same,GI50,RXF-393; Homo sapiens,5.48 µM
same,CC50,RXF-393; [2],46.5 µM
same,TGI,RXF-393,18.9 µM
same,GI50,UO-31; Homo sapiens,4.16 µM
same,CC50,UO-31; [2],> 100 µM
same,TGI,UO-31,38.1 µM
same,TGI,A549/ATCC,20.4 µM
same,GI50,A549/ATCC; Homo sapiens,4.01 µM
same,CC50,A549/ATCC; [2],> 100 µM
same,TGI,ACHN,>100 µM
same,GI50,ACHN; Homo sapiens,5.11 µM
same,CC50,ACHN; [2],> 100 µM
same,GI50,SF-295; Homo sapiens,5.22 µM
same,CC50,SF-295; [2],77.5 µM
same,TGI,SF-295,23.5 µM
same,GI50,PC-3; Homo sapiens,6.36 µM
same,CC50,PC-3; [2],> 100 µM
same,TGI,PC-3,>100 µM
same,GI50,"K-562; Homo sapiens, K562",4.08 µM
same,CC50,"K-562; Homo sapiens, K562, read-out: LC50 (the source's name)",> 100 µM
same,TGI,K-562,57.5 µM
same,TGI,ADR-RES (NCI/ADR-RES); ADR-RES,>100 µM
same,GI50,"ADR-RES (NCI/ADR-RES); Homo sapiens, NCI/ADR-RES",4.41 µM
same,CC50,"ADR-RES (NCI/ADR-RES); Homo sapiens, NCI/ADR-RES, read-out: LC50 (the source's name)",> 100 µM
same,GI50,UACC-62; Homo sapiens,5.3 µM
same,CC50,UACC-62; [2],58.8 µM
same,TGI,UACC-62,19.7 µM
same,GI50,SNB-75; Homo sapiens,5.47 µM
same,CC50,SNB-75; [2],> 100 µM
same,TGI,SNB-75,36.6 µM
same,GI50,"MALME-3M; Homo sapiens, Malme-3M",5.53 µM
same,CC50,"MALME-3M; Homo sapiens, Malme-3M, read-out: LC50 (the source's name)",> 100 µM
same,TGI,MALME-3M; MALME-3M,32.1 µM
same,GI50,SK-OV-3; Homo sapiens,7.96 µM
same,CC50,SK-OV-3; [2],> 100 µM
same,TGI,SK-OV-3,36.2 µM
same,GI50,NCI-H460; Homo sapiens,3.09 µM
same,CC50,NCI-H460; [2],> 100 µM
same,TGI,NCI-H460,15.6 µM
same,GI50,[1]; Homo sapiens,1.63 µM
same,CC50,[1]; [2],> 100 µM
same,TGI,[1],7.82 µM
same,TGI,HCT-15,20.5 µM
same,GI50,HCT-15; Homo sapiens,4.25 µM
same,CC50,HCT-15; [2],84.5 µM
same,TGI,HL-60 (TB),17.1 µM
same,GI50,HL-60 (TB); Homo sapiens,2.55 µM
same,CC50,HL-60 (TB); [2],> 100 µM
